Measurements reported in patent US20210228515A1, “BENZOIC ACID OR A SALT AND DERIVATIVE THEREOF FOR USE IN PREVENTING OR TREATING ANTI-N-METHYL-D-ASPARTATE RECEPTOR ENCEPHALITIS” (EXCELSIOR PHARMATECH LABS, priority 2018, published 2021).

Experiment: Case treatment of a patient with confirmed anti-NMDAR encephalitis
Assay type: in vivo
Conditions: for response to antipsychotics: high doses: aripiprazole 20-30 mg, clozapine 300-500 mg, clozapine 500 mg plus paliperidone 9 mg, before the diagnosis was confirmed

Compound | response to antipsychotics | clinical improvement (sodium benzoate 1000 mg per day for 2 months, patient able to return to a normal life) | psychotic symptoms including dissociation and agitation (sodium benzoate 1000 mg per day for 2 months, patient refractory to antipsychotics, ECT and immunotherapy)
Cc1nc2n(c(=O)c1CCN1CCC(c3noc4cc(F)ccc34)CC1)CCCC2O (stereo not shown) [paliperidone] | very poor response |  | 
O=C1CCc2ccc(OCCCCN3CCN(c4cccc(Cl)c4Cl)CC3)cc2N1 [aripiprazole] | very poor response |  | 
O=C([O-])c1ccccc1.[Na+] [Sodium benzoate, sodium benzoate] |  | obvious clinical improvement | reduced
